According to patent publication US5407950A, “Arylalkanoylamine derivative and drug containing the same” (priority 1990, dated 1995):
Read-outs that look alike come from different tables or passages of the source.

How the values were obtained:
ICR male mice = assay: Anti-hypoxic activity (Test Example 2), survival time under 4% O2 / 96% N2; type: in vivo; conditions: 100 mg/kg, intraperitoneal, 30 min before gas; control = 100
Procedure: Groups of ICR male mice (Charles River Co.), age 4 to 5 weeks, each group consisting of 10 mice and each mouse having been fasted for 24 hours, were used for the test. Mice were placed in a transparent desiccator (diameter: 19 cm, height: 30 cm) made of synthetic resin and having 2 valves, one at the upper portion and the other at the lower portion, for replacing the gas therein. […] The time measured was taken as the survival time.
Each tested compound suspended in an solvent was intraperitoneally administered 30 minutes before the start of the mixed gas feeding. A group of mice to which only the solvent was intraperitoneally administered was used as a control.
The anti-hypoxic activity was determined according to the following equation: [formula]

[1] = biological target: T1, prolyl endopeptidase from canine brain (Canis lupus familiaris, UniProt A0A8I3N6C8); assay: Inhibitory activity against prolyl endopeptidase from brain (Test Example 1); type: biochemical
T1 construct: A prolyl endopeptidase was prepared from canine brains; from tissue; host or cells: canine brain
Procedure: Following buffer solutions A and B were used for the measurement.
Buffer A: 20 mM Tris-HCl buffer (pH 7.0)
Buffer B: Buffer A containing 0.1% gelatin, 1 mM EDTA, 1 mM 2-mercaptoethanol.
Dilution of the prolyl endopeptidase preparation with Buffer B to a concentration of 0.4 units/ml was done, and the resulting solution was defined as enzyme solution. To 940 μl of Buffer A was added 50 μl of the enzyme solution, followed by incubating at 37° C. for 10 minutes, to which was added 10 μl of a solution of a sample compound dissolved in dimethyl sulfoxide, and stirred and mixed together, followed by staying at 37° C. for ten minutes. To the mixture was added 100 μl of carbobenzoxyglycylprolyl p-nitroanilide dissolved in 40% dioxane to a final concentration of 2.5 mM, for reaction at 37° C. for 10 minutes, to which was added 100 μl of 50% acetic acid containing 10% Triton X-100, thereby terminating the reaction.
For controls, dimethyl sulfoxide was added at the same amount (10 μl) instead of the solution of the sample compound; for blind tests, dimethyl sulfoxide and Buffer B were added instead of a sample compound and the enzyme solution, respectively, at the same amounts for effecting the same procedure.

ICR mice = assay: Toxicity test; Parenteral administration (Test Example 4); type: in vivo; conditions: 300 mg/kg parenteral, 7 days observation
Procedure: Test Example 4 (Toxicity test; Parenteral administration)
Ten ICR mice (Charles River, Co.), male, aged 4 to 5 weeks, were employed per group. The compounds of Examples 1, 5, 8 and 12 were separately suspended in 10% gum arabic, and then, they were individually administered parenterally at a dose of 300 mg/kg for subsequent observation for 7 days. As a result, no death was counted under the above conditions.

Male ICR mice = assay: Toxicity test; Oral administration (Test Example 5); type: in vivo; conditions: 1,000 mg/kg oral, 7 days observation
Procedure: Test Example 5 (Toxicity test; Oral administration)
Five male ICR mice (Charles River, Co.) of age 5 weeks, were employed per group. The compound of Example 22 was suspended in a solvent, which was then administered orally at a dose of 1,000 mg/kg for subsequent observation for 7 days. As a result, no death was counted under the above conditions.

[2] = canine brain enzyme, carbobenzoxyglycylprolyl p-nitroanilide substrate, 37° C., pH 7.0, read-out: Inhibition Potency IC50

T1 sequence (A0A8I3N6C8 1-710): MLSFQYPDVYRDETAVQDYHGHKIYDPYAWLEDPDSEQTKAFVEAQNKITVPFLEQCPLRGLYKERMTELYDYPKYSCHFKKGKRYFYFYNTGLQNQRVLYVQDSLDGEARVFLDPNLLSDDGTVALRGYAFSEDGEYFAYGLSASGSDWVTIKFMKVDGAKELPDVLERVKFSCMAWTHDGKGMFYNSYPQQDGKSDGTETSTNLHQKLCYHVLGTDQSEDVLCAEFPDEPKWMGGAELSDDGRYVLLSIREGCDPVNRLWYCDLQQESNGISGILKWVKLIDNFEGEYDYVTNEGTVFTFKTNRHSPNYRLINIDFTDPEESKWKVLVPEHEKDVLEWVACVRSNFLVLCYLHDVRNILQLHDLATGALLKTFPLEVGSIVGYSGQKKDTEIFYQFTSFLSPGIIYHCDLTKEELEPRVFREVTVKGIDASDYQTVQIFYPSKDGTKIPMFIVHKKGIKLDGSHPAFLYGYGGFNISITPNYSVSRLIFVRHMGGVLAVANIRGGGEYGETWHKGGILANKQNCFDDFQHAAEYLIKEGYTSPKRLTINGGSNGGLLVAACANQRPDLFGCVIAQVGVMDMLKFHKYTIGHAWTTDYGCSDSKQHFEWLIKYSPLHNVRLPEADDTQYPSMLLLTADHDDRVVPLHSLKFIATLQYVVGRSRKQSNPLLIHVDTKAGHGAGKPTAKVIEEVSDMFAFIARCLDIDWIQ

IC50 [1, 2] [µM]	SMILES	Anti-hypoxic Activity (ICR male mice) [%]	death within 7 days (parenteral) (ICR mice)	also measured
–	O=C([C@@H]1CCCN1C(=O)c1cc2ccccc2o1)N1CCC[C@H]1CO [Example 6, 1-[1-(benzofuran-2-ylcarbonyl)-L-prolyl]-L-prolinol]	128	–	–
0.016	O=C([C@@H]1CSCN1C(=O)C[C@H]1CCc2ccccc2C1)N1CCC[C@H]1C=NO [Example 25, (2S)-1-[3-((S)-1,2,3,4-Tetrahydronaphthalen-2-ylacetyl)-L-thioprolyl]-2-pyrrolidine aldoxime]	–	–	–
–	COc1ccc(C(=O)N2CCCC2=O)cc1 [Aniracetam, reference compound]	115	–	IC50 [1]: > 1000 µM
–	O=C[C@@H]1CSCN1C(=O)[C@@H]1CCCN1C(=O)c1cc2ccccc2o1 [Example 12, 3-[1-(benzofuran-2-ylcarbonyl)-L-prolyl]-L-thioprolinal]	–	no death	–
–	O=C[C@@H]1CCCN1C(=O)[C@@H]1CSCN1C(=O)CC1Cc2ccccc2C1 [Example 2, 1-[3-(Indan-2-ylacetyl)-L-thioprolyl]-L-prolinal]	120	–	–
–	O=C[C@@H]1CCCN1C(=O)[C@@H]1CSCN1C(=O)C[C@H]1CCc2ccccc2C1 [Example 9, 1-[3-((S)-1,2,3,4-tetrahydronaphthalen-2-ylacetyl)-L-thioprolyl]-L-prolinal]	123	–	death within 7 days (oral) (Male ICR mice): no death
–	O=C([C@@H]1CSCN1C(=O)CC1Cc2ccccc2C1)N1CCC[C@H]1CO [Example 1, 1-[3-(Indan-2-ylacetyl)-L-thioprolyl]-L-prolinol]	–	no death	–
0.0014	O=C[C@@H]1CSCN1C(=O)[C@@H]1CSCN1C(=O)C[C@H]1CCc2ccccc2C1 [Example 10, 3-[3-((S)-1,2,3,4-tetrahydronaphthalen-2-ylacetyl)-L-thioprolyl]-L-thioprolinal]	129	–	–
–	O=C([C@@H]1CSCN1C(=O)C[C@H]1CCc2ccccc2C1)N1CSC[C@H]1CO [Example 5, 3-[3-((S)-1,2,3,4-tetrahydronaphthalen 2-ylacetyl)-L-thioprolyl]-L-thioprolinol]	115	no death	–
0.069	O=C[C@@H]1CCCN1C(=O)[C@@H]1CCCN1C(=O)c1cc2ccccc2o1 [Example 11, 1-[1-(benzofuran-2-ylcarbonyl)-L-prolyl]-L-prolinal]	–	–	–

SMILES	IC50 [1, 2] [µM]	Anti-hypoxic Activity (ICR male mice) [%]	death within 7 days (parenteral) (ICR mice)	also measured
O=C[C@@H]1CSCN1C(=O)[C@@H]1CCCN1C(=O)CC1Cc2ccccc2C1 [Example 8, 3-[1-(indan-2-ylacetyl)-L-prolyl]-L-thioprolinal]	0.0012	120	no death	–
